The target in the test is T1, LRRK2 G2019S mutant kinase (Homo sapiens, UniProt Q5S007, G2019S).
T1 construct: GST; purchased Invitrogen PV4882
In words: LRRK2 G2019S LanthaScreen TR-FRET kinase assay. Format: biochemical. Particulars: LRRK2 G2019S GST-tagged protein, 75 nM Fluorescein-ERM (LRRKtide), 100 μM ATP, 1 hour at room temperature; read-out: IC50 (potency). The protocol: The final solvent concentration in the assay was 1% DMSO. […] Generation of raw data and workup of data to derive the IC50 (potency) and maximal inhibition at concentrations tested were performed using Merck's Assay Data Analyzer (ADA) software.
The IC50 (potency) was evaluated for the example compounds presented above.
A general note: Time-resolved FRET reads energy transfer from a long-lived donor to a nearby acceptor.

T1 sequence (Q5S007 whole entry G2019S): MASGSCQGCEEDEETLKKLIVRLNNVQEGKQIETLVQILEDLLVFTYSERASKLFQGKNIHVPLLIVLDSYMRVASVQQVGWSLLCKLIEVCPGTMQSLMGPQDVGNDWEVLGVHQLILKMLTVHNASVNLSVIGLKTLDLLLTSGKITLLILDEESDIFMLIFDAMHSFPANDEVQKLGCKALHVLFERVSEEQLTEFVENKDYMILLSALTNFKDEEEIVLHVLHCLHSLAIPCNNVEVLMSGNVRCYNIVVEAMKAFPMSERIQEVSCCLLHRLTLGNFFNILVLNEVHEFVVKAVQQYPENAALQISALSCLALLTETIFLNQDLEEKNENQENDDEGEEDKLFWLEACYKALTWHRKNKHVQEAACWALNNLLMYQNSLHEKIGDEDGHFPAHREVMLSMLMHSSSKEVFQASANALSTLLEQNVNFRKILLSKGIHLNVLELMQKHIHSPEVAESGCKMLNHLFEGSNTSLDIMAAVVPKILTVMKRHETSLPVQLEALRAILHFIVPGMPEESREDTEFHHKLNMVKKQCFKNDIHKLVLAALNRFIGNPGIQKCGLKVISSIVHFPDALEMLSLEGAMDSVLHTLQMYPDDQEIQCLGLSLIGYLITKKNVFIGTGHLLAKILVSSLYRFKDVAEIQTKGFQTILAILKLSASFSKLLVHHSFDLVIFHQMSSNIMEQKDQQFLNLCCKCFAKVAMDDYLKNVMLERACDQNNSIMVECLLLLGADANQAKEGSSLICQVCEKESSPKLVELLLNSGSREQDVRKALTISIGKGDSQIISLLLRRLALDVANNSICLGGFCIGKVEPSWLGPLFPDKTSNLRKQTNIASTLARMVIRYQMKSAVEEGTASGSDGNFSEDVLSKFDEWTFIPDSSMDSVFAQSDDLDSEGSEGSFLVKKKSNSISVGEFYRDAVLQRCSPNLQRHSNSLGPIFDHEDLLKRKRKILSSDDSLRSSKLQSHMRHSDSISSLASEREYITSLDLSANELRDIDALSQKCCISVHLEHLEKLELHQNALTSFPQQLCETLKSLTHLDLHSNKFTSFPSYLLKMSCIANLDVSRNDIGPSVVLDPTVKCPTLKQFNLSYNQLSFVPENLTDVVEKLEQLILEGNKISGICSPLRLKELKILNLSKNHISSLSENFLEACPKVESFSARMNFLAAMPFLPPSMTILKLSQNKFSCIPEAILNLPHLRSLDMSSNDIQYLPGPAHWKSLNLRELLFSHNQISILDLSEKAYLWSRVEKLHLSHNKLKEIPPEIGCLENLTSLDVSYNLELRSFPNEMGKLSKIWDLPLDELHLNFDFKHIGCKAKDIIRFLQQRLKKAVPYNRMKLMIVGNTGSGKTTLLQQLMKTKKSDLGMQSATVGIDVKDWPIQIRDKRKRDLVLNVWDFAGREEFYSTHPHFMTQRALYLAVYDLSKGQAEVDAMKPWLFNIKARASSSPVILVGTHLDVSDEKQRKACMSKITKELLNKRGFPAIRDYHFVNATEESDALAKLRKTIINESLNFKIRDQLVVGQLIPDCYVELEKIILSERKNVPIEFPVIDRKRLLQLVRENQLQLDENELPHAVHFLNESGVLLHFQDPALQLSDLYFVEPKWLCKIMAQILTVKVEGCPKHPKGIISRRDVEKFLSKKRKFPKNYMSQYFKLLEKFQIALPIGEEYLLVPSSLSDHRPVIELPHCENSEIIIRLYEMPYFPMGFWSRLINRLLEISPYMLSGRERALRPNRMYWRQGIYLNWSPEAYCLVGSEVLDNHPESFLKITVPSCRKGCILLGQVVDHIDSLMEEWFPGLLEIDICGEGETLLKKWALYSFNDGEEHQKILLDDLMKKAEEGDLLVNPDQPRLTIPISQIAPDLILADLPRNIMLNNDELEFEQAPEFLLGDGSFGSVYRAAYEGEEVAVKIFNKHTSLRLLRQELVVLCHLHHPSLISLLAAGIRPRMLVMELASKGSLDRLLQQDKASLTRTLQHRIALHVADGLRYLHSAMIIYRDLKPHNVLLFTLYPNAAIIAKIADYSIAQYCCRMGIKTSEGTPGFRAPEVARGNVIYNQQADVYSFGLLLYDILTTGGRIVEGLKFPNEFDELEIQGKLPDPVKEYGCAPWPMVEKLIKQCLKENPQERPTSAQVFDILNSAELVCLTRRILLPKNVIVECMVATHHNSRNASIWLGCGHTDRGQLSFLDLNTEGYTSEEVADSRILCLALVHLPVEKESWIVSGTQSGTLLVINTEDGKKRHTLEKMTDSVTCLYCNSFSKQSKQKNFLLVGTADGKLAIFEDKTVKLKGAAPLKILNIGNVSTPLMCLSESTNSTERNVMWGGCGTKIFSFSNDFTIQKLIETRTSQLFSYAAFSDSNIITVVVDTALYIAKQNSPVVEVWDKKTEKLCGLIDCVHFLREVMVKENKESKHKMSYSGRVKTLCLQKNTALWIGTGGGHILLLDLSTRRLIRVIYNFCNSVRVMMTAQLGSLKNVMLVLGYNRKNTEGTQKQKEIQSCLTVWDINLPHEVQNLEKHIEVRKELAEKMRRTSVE

By IC50 is commonly meant the concentration needed to halve the response being measured. On to `CCC(C)CSc1sc(-c2cc[nH]n2)c2c1C(=O)NCC2` (stereo not drawn) [Example 44, 3-[(2-methyl)butylsulfanyl]-1-(1H-pyrazol-3-yl)-6,7-dihydrothieno[3,4-c]pyridin-4(5)-one], for which the IC50 was 0.13 µM.

With `CNc1sc(-c2cc[nH]n2)c2c1C(=O)NC(CC(C)C)C2` (stereo not drawn) [Example 95, 3-(methylamino)-6-(2-methyl)propyl-1-(1H-pyrazol-3-yl)-6,7-dihydrothieno[3,4-c]pyridin-4(5H)-one], the IC50 came to 0.47 µM.

With `CSc1sc(-c2cc[nH]n2)c2c1C(=O)NC(CC(C)C)C2` (stereo not drawn) [Example 12, 6-(2-methylpropyl)-3-(methylsulfanyl)-1-(1H-pyrazol-3-yl)-6,7-dihydrothieno[3,4-c]pyridin-4(5)-one], the IC50 came out at 0.3 µM.

Turning to `CSc1sc(-c2cc[nH]n2)c2c1C(=O)N(CCC1CCCCC1)CC2` [Example 71, 3-(methylsulfanyl)-5-[(2-cyclohexyl)ethyl]-1-(1H-pyrazol-3-yl)-6,7-dihydrothieno[3,4-c]pyridin-4(5)-one], the IC50 was 7.5 µM.

`CSc1sc(-c2cc[nH]n2)c2c1C(=O)N[C@H](c1cc(F)cc(F)c1)C2` [Example 16, (6S)-3-(methylsulfanyl)-6-(3,5-difluorophenyl)-1-(1H-pyrazol-3-yl)-6,7-dihydrothieno[3,4-c]pyridin-4(5)-one]: the IC50 was 0.24 µM.

Regarding `C[C@H]1Cc2c(-c3cc[nH]n3)sc(NC3CCCC3)c2C(=O)N1` [Example 97, (6S)-3-(cyclopentylamino)-6-methyl-1-(1H-pyrazol-3-yl)-6,7-dihydrothieno[3,4-c]pyridin-4(5H)-one], the IC50 is 0.32 µM.

Consider `CSc1sc(-c2cc[nH]n2)c2c1C(=O)N(CCCCO)CC2` [Example 60, 5-(4-hydroxybutyl)-3-(methylsulfanyl)-1-(1H-pyrazol-3-yl)-6,7-dihydrothieno[3,4-c]pyridin-4(5)-one], for which the IC50 was found to be 1.7 µM.

As to `CC(C)CC1Cc2c(-c3cc[nH]n3)sc(NC3CCCC3)c2C(=O)N1` (stereo not drawn) [Example 89, 3-(cyclopentylamino)-6-(2-methyl)propyl-1-(1H-pyrazol-3-yl)-6,7-dihydrothieno[3,4-c]pyridin-4(5H)-one], the 50% inhibitory concentration (IC50) was found to be 0.19 µM.

`CSc1sc(-c2cc[nH]n2)c2c1C(=O)NC[C@H]2C` [Example 22, (7S)-7-methyl-3-(methylsulfanyl)-1-(1H-pyrazol-3-yl)-6,7-dihydrothieno[3,4-c]pyridin-4(5)-one]: the IC50 worked out at 0.4 µM.

As to `COc1cccc(N2CCc3c(-c4cc[nH]n4)sc(SC)c3C2=O)c1` [Example 84, 5-(3-methoxyphenyl)-3-(methylsulfanyl)-1-(1H-pyrazol-3-yl)-6,7-dihydrothieno[3,4-c]pyridin-4(5)-one], the IC50 was 4.7 µM.

Regarding `O=C1NC(C(F)(F)F)Cc2c(-c3cc[nH]n3)sc(SC3CCCC3)c21` (stereo not drawn) [Example 35, 6-trifluoromethyl-3-(cyclopentylsulfanyl)-1-(1H-pyrazol-3-yl)-6,7-dihydrothieno[3,4-c]pyridin-4(5)-one], the 50% inhibitory concentration (IC50) is 0.16 µM.

`CC1Cc2c(-c3cc[nH]n3)sc(SC3CCCC3)c2C(=O)N1` (stereo not drawn) [Example 31, 6-methyl-3-(cyclopentylsulfanyl)-1-(1H-pyrazol-3-yl)-6,7-dihydrothieno[3,4-c]pyridin-4(5)one]: the IC50 stood at 0.035 µM.

Take `CSc1sc(-c2cc[nH]n2)c2c1C(=O)NCC2Cc1ccccc1` (stereo not drawn) [Example 25, 7-benzyl-3-(methylsulfanyl)-1-(1H-pyrazol-3-yl)-6,7-dihydrothieno[3,4-c]pyridin-4(5H)-one]: the concentration for half-maximal inhibition (IC50) is 0.15 µM.

As for `O=C(O)CSc1sc(-c2cc[nH]n2)c2c1C(=O)NCC2` [Example 46, 1-{[4-oxo-1-(1H-pyrazol-3-yl)-4,5,6,7-tetrahydrothieno[3,4-c]pyridin-3-yl]sulfanyl}acetic acid], the IC50 turned out to be 3.1 µM.

As for `CSc1sc(-c2cc[nH]n2)c2c1C(=O)NC(C1CC1)C2` (stereo not drawn) [Example 13, 6-cyclopropyl-3-(methylsulfanyl)-1-(1H-pyrazol-3-yl)-6,7-dihydrothieno[3,4-c]pyridin-4(5)-one], the concentration for half-maximal inhibition (IC50) was 0.45 µM.

`CSc1sc(-c2cc[nH]n2)c2c1C(=O)N(CCc1ccccc1)CC2` [Example 55, 3-(methylsulfanyl)-5-(2-phenethyl)-1-(1H-pyrazol-3-yl)-6,7-dihydrothieno[3,4-c]pyridin-4(5)-one]: the IC50 is 1.2 µM.

With `CC(C)Sc1sc(-c2cc[nH]n2)c2c1C(=O)NCC2` [Example 41, 3-[2-(1-methyl)ethylsulfanyl]-1-(1H-pyrazol-3-yl)-6,7-dihydrothieno[3,4-c]pyridin-4(5)-one], the IC50 was determined as 0.46 µM.

`CCC(C)CSc1sc(-c2cc[nH]n2)c2c1C(=O)N[C@H](C)C2` (stereo partly drawn) [Example 49]: the IC50 came to 0.12 µM.

For the molecule `CSc1sc(-c2cc[nH]n2)c2c1C(=O)N(C(=O)OC(C)(C)C)C1(CCC1)C2` [Example 6, tert-butyl-6-methyl-3′-(methylsulfanyl)-4′-oxo-1′-(1H-pyrazol-3-yl)-7′H-spiro[cyclobutane-1,6′-thieno[3,4-1]pyridine]-5′(4′H)-carboxylate], the IC50 stood at 3.1 µM.

With `CSc1sc(-c2cc[nH]n2)c2c1C(=O)N[C@H](c1cccc(F)c1)C2` [Example 17, (6S)-3-(methylsulfanyl)-6-(3-fluorophenyl)-1-(1H-pyrazol-3-yl)-6,7-dihydrothieno[3,4-c]pyridin-4(5)-one], the IC50 was found to be 0.078 µM.

On to `CSc1sc(-c2cc[nH]n2)c2c1C(=O)N(Cc1ccccc1)CC2` [Example 77, 5-benzyl-3-(methylsulfanyl)-1-(1H-pyrazol-3-yl)-6,7-dihydrothieno[3,4-c]pyridin-4(5)-one], for which the IC50 is 1.3 µM.

With `O=C1NC(Cc2ccccc2)Cc2c(-c3cc[nH]n3)sc(SC3CCCC3)c21` (stereo not drawn) [Example 33, 6-benzyl-3-(cyclopentylsulfanyl)-1-(1H-pyrazol-3-yl)-6,7-dihydrothieno[3,4-c]pyridin-4(5)-one], the 50% inhibitory concentration (IC50) worked out at 0.53 µM.

For the molecule `CSc1sc(-c2cc[nH]n2)c2c1C(=O)N(c1ccccc1)CC2` [Example 81, 3-(Methylsulfanyl)-5-phenyl-1-(1H-pyrazol-3-yl)-6,7-dihydrothieno[3,4-c]pyridin-4(5H)-one], the IC50 was determined as 2 µM.

As for `CC1CNC(=O)c2c(NC3CCCC3)sc(-c3cc[nH]n3)c21` (stereo not drawn) [Example 86, 3-(cyclopentylamino)-7-methyl-1-(1H-pyrazol-3-yl)-6,7-dihydrothieno[3,4-e]pyridin-4(5H)-one], the IC50 turned out to be 0.12 µM.

On to `CSc1sc(-c2cc[nH]n2)c2c1C(=O)N(c1cccc(F)c1)CC2` [Example 82, 5-(3-fluorophenyl)-3-(methylsulfanyl)-1-(1H-pyrazol-3-yl)-6,7-dihydrothieno[3,4-c]pyridin-4(5)-one], for which the IC50 worked out at 4 µM.

As for `CSc1sc(-c2cc[nH]n2)c2c1C(=O)N(CCC=C(F)F)CC2` [Example 69, 5-(4,4-difluorobut-3-en-1-yl)-3-(methylsulfanyl)-1-(1H-pyrazol-3-yl)-6,7-dihydrothieno[3,4-c]pyridin-4(5)-one], the IC50 is 0.76 µM.

Take `CSc1sc(-c2cc[nH]n2)c2c1C(=O)N(Cc1ccnc3ccccc13)CC2` [Example 56, 3-(methylsulfanyl)-1-(1H-pyrazol-3-yl)-5-(quinolin-4-ylmethyl)-6,7-dihydrothieno[3,4-c]pyridin-4(5)-one]: the IC50 was found to be 3.7 µM.

The values above are taken from patent US9233977B2, “Leucine-rich repeat kinase enzyme activity” (Merck Sharp & Dohme Corp., priority 2010, dated 2016).
